Series [1] is described as follows: Maximum carbon dioxide release temperature of amine compound (DSC). The following applies: amine compound with CO2 absorbed from air for 24 h; DSC 23 to 250° C., 10° C./min, nitrogen atmosphere. Type of series: physicochemical. As to the method:
The amine compound (A) is heated with carbon dioxide absorbed from 23° C. to 250° C. at 10° C./minute of a heating rate, and a temperature at which an endothermic amount associated with desorption of carbon dioxide reaches a maximum is measured, and this temperature is taken as the maximum carbon dioxide release temperature. Here, the amine compound (A) with carbon dioxide absorbed can be prepared, for example, by allowing 5 mmol of the amine compound (A) to stand in the air at 23° C. and 50% RH for 24 hours.
(Maximum Carbon Dioxide (CO2) Release Temperature of Amine Compound)
After the above evaluation of the absorbed amount of carbon dioxide from the air was completed, the amine compound was removed from the desiccator as the amine compound having carbon dioxide absorbed. The DSC measurement was performed on the amine compound with carbon dioxide absorbed as follows, to measure the maximum carbon dioxide release temperature of the amine compound. First, the differential scanning calorimetry was performed on the amine compound using the differential thermogravimetric analyzer (Product Name: DTG-60 produced by Shimadzu Corporation) under the conditions of 23 to 250° C. of a measurement temperature range, 10° C./min of the heating rate, and the nitrogen atmosphere. From the DSC curve obtained thereby, the temperature at which the endothermic amount associated with the desorption of carbon dioxide reached the maximum was calculated, and the temperature thereof was used as the maximum carbon dioxide release temperature of the amine compound.

Series [2] can be described thus: Evaluation of absorbed amount of carbon dioxide from air (desiccator). The following applies: 5 mmol amine compound in desiccator, air 23° C. and 50% RH, initial CO2 about 400 ppm, after 24 hours. As to the method:
(Evaluation of Absorbed Amount of Carbon Dioxide from Air)
A carbon dioxide concentration meter and a petri dish were placed inside an openable desiccator (Internal Dimension: 370 mm×260 mm×272 mm). The amine compound (5 mmol) was then added to the petri dish in the desiccator, a door was immediately closed, and the carbon dioxide concentration in the desiccator was measured over time for 24 hours under an air environment of 23° C. and 50% RH. The initial concentration of carbon dioxide was adjusted to about 400 ppm. Changes of the carbon dioxide concentration in the desiccator 24 hours after the amine compound was placed in the desiccator are shown in Table 1. Here, it is meant that the greater the change of the carbon dioxide concentration in the desiccator is, the greater the amount of the carbon dioxide absorbed by the carbon dioxide absorbent is.

A short description of series [3]: Acid dissociation constant (pKa) by acid-base titration. To be noted: 0.2 g in 30 mL purified water, 25±2° C. The format is physicochemical. As to the method: In the present embodiments, the acid dissociation constant of the amine compound (A) is a value obtained by the following measurement method based on an acid-base titration method. • (1) Dissolving 0.2 g of the amine compound (A) in 30 mL of purified water. • (2) Calculating the acid dissociation constant (pKa) by titrating the solution obtained in the above (1) with 0.1 N perchloric acid-acetic acid solution using an automatic potentiometric titrator (for example, AT-610 produced by Kyoto Electronics Manufacturing Co., Ltd.).
(Acid Dissociation Constant (pKa) of Amine Compound)
The acid dissociation constant of the amine compound was determined by the following method. • (1) Dissolving 0.2 g of the amine compound in 30 mL of the purified water. • (2) Calculating the acid dissociation constant (pKa) by titrating the solution obtained in the above (1) with the 0.1 N perchloric acid-acetic acid solution using the automatic potentiometric titrator (AT-610 produced by Kyoto Electronics Manufacturing Co., Ltd.).
Still, let the temperature at the time of measurement be 25±2° C.

Series [4] can be described thus: Maximum endothermic temperature of amine compound (DSC). Type of series: physicochemical. The following applies: DSC 23 to 350° C., 10° C./min, nitrogen atmosphere; volatilization of amine compound. The method, then:
Heating the amine compound (A) from 23° C. to 350° C. at 10° C./minute of the heating rate, measuring a temperature at which an endothermic amount associated with the volatilization of the amine compound (A) reaches a maximum, and letting this temperature be the maximum endothermic temperature of the amine compound (A).
(Maximum Endothermic Temperature of Amine Compound)
DSC measurements were performed on the amine compounds used in Examples and Comparative Examples to measure the maximum endothermic temperature of the amine compounds as follows. First, a differential scanning calorimetry was performed on the amine compounds using a differential thermogravimetric analyzer (Product Name: DTG-60 produced by Shimadzu Corporation) under conditions of 23 to 350° C. of a measurement temperature range, 10° C./min of a heating rate, and a nitrogen atmosphere. From the DSC curve obtained thereby, the temperature at which the endothermic amount associated with the volatilization of the amine compound reached the maximum was calculated, and the temperature thereof was used as the maximum endothermic temperature of the amine compound.

Series [5] is described as follows: Amine value of amine compound (JIS K7237-1995 titration). The format is physicochemical. The following applies: 0.1 g in 20 mL acetic acid, titrated with 0.1 N perchloric acid-acetic acid. The method, then: The amine value can be measured by the following method in accordance with JIS K7237-1995. • (1) Dissolving 0.1 g of the amine compound (A) in 20 mL of acetic acid. • (2) Calculating the amine value by titrating the solution obtained in the above (1) with the 0.1 N perchloric acid-acetic acid solution using the automatic potentiometric titrator (for example, AT-610 produced by Kyoto Electronics Manufacturing Co., Ltd.).
(Amine Value of Amine Compound)
The amine value was measured by the following measurement method in accordance with JIS K7237-1995. • (1) Dissolving 0.1 g of the amine compound in 20 mL of the acetic acid. • (2) Calculating the amine value by titrating the solution obtained in the above (1) with the 0.1 N perchloric acid-acetic acid solution using the automatic potentiometric titrator (AT-610 produced by Kyoto Electronics Manufacturing Co., Ltd.).

This note sets out measurements from patent publication US20240100473A1, “CARBON DIOXIDE ABSORBER” (MITSUBISHI GAS CHEMICAL COMPANY, INC., priority 2021, published 2024).

`NCc1ccc(CN)o1` [Example 2, 2,5-bisaminomethylfuran]: the “Maximum CO2 Release Temperature” value in series [1] stood at 85.0 °C. The “Evaluation of CO2 Absorbed Amount: Changes of CO2 Concentration, 24h” value (“Evaluation … Changes of CO2 Concentration, 24h” below) in series [2] worked out at 306 ppm. In addition, in series [3], the pKa was determined as 9. Also, the “Maximum Endothermic Temperature” value in series [4] was 154.2 °C. Moreover, in series [5], the “Amine Value” was 890 mgKOH/g.

Regarding `NCCNCCN` [Comparative Example 2, Diethylenetriamine, reference compound], the “Maximum CO2 Release Temperature” value in series [1] stood at 127.8 °C. For the same molecule, the “Evaluation … Changes of CO2 Concentration, 24h” value in series [2] is listed as 300 ppm. In series [3], this molecule came in with a pKa of 9.7. Also, the “Maximum Endothermic Temperature” value in series [4] came to 127.8 °C. The “Amine Value” in series [5] came to 1632 mgKOH/g.

Regarding `NCCN1CCOCC1` [Example 4, 4-(2-aminoethyl)morpholine], the “Maximum CO2 Release Temperature” value in series [1] is 81.5 °C. Also, in series [2], the “Evaluation … Changes of CO2 Concentration, 24h” value is given as 400 ppm. The molecule also displayed a pKa in series [3] of 10.1. Besides, the “Maximum Endothermic Temperature” value in series [4] was found to be 145.0 °C. Besides, the “Amine Value” in series [5] is 862 mgKOH/g.

With `NCC1CCC(CN)O1` (stereo not drawn) [Example 1, 2,5-bis(aminomethyl)tetrahydrofuran], the “Maximum CO2 Release Temperature” value in series [1] turned out to be 80.3 °C. Moreover, the “Evaluation … Changes of CO2 Concentration, 24h” value in series [2] worked out at 300 ppm. Further, the pKa in series [3] came out at 9.4. Moreover, the “Maximum Endothermic Temperature” value in series [4] stood at 155.9 °C. In series [5], the “Amine Value” was 862 mgKOH/g.

Consider `NCc1ccco1` [Example 6, Furfurylamine], for which the “Maximum CO2 Release Temperature” value in series [1] came to 66.7 °C. The “Evaluation … Changes of CO2 Concentration, 24h” value in series [2] was found to be 188 ppm. In addition, the pKa in series [3] came out at 9.2. Also, in series [4], the “Maximum Endothermic Temperature” value is 92.4 °C. Further, the “Amine Value” in series [5] was 578 mgKOH/g.

In the case of `NCC1CCOCC1` [Example 3, 4-aminomethyltetrahydropyran], the “Maximum CO2 Release Temperature” value in series [1] was 111.0 °C. Further, the “Evaluation … Changes of CO2 Concentration, 24h” value in series [2] is reported as 389 ppm. The molecule also came in with a pKa in series [3] of 10. Also, in series [4], the “Maximum Endothermic Temperature” value amounted to 127.4 °C. In addition, the “Amine Value” in series [5] was 487 mgKOH/g.

Regarding `NCc1cccc(CN)c1` [Comparative Example 1, Meta-xylylenediamine, reference compound], the “Maximum CO2 Release Temperature” value in series [1] stood at 135.5 °C. The “Evaluation … Changes of CO2 Concentration, 24h” value in series [2] turned out to be 329 ppm. The molecule further showed a pKa in series [3] of 9.5. In addition, in series [4], the “Maximum Endothermic Temperature” value worked out at 183.5 °C. Also, the “Amine Value” in series [5] is reported as 824 mgKOH/g.

With `Cc1ccc(CN)o1` [Example 7, 5-methylfurfurylamine], the “Maximum CO2 Release Temperature” value in series [1] came to 80.7 °C. Further, in series [2], the “Evaluation … Changes of CO2 Concentration, 24h” value is 226 ppm. Further, in series [3], the pKa was 9.2. Besides, in series [4], the “Maximum Endothermic Temperature” value was 115.3 °C. Besides, the “Amine Value” in series [5] is recorded as 505 mgKOH/g.

Consider `NCc1cccs1` [Example 5, 2-thiophenemethylamine], for which, in series [1], the “Maximum CO2 Release Temperature” value worked out at 83.6 °C. Besides, the “Evaluation … Changes of CO2 Concentration, 24h” value in series [2] was determined as 249 ppm. In addition, in series [3], the pKa was found to be 9.5. Besides, the “Maximum Endothermic Temperature” value in series [4] was 140.1 °C. In series [5], the “Amine Value” worked out at 496 mgKOH/g.
